Assays:
[1] = tested on: HER2-positive breast cancer cell line JIMT-1; assay: MTS cell viability assay, JIMT-1; format: cell-based, human; conditions: 72 hours
Experimental: A human triple-negative breast cancer (TNBC) cell line MDA-MB-231 (Cell seeding numbers: 1(M231)×10^4 cells/wells (confluency ≥25%) and an HER2-positive breast cancer (HER2+BC) cell line JIMT-1 (Cell seeding numbers: 1.2 (JIMT)×10^4 cells/wells (confluency ≥25%) were used in the experiment.
The cell lines were cultured in a Dulbecco's modified Eagle's medium (DMEM) containing 10% fetal bovine serum (FBS), streptomycin-penicillin (100 U/mL) and Fungizone (0.625 μg/mL) in an environment of 5% CO2 and 37° C., respectively.
In the human breast cancer cell lines MDA-MB-231 and JIMT-1, thiobenzimidazole derivatives of Chemical Formulas 1-1, 1-2, 1-3, 1-5, 1-6, 1-7, 1-8, 1-1-11, 1-12, 1-13, 1-14, 1-15, 1-16, 1-17, 1-19, 1-20, 1-21, and 1-22 were treated at various concentrations of 0, 0.5, 1, and 5 μM for 72 hours, respectively, and then cell viability was measured by an MTS assay. In the MTS assay, the cells were attached to a 96 well plate for 24 hours, treated with the thiobenzimidazole derivatives for 72 hours, and then developed with MTS (3-(4,5-dimethylthiazol-2-yl)-5-(3-carboxymethoxyphenyl)-2-(4-sulfophenyl)-2H-tetrazolium) for 4 hours, and then absorbance was measured at 490 nm using a Spectramax Plus384 microplate analyzer. […]

[2] = tested on: HER2-positive breast cancer cell line BT474; assay: MTS cell viability assay, BT474; format: cell-based; conditions: 72 hours
Experimental: In the human breast cancer cell lines MDA-MB-231 and JIMT-1, thiobenzimidazole derivatives of Chemical Formulas 1-1, 1-2, 1-3, 1-5, 1-6, 1-7, 1-8, 1-1-11, 1-12, 1-13, 1-14, 1-15, 1-16, 1-17, 1-19, 1-20, 1-21, and 1-22 were treated at various concentrations of 0, 0.5, 1, and 5 μM for 72 hours, respectively, and then cell viability was measured by an MTS assay. In the MTS assay, the cells were attached to a 96 well plate for 24 hours, treated with the thiobenzimidazole derivatives for 72 hours, and then developed with MTS (3-(4,5-dimethylthiazol-2-yl)-5-(3-carboxymethoxyphenyl)-2-(4-sulfophenyl)-2H-tetrazolium) for 4 hours, and then absorbance was measured at 490 nm using a Spectramax Plus384 microplate analyzer. […] The HER2-positive breast cancer cell line BT474 sensitive to Trastuzumab and the HER2-positive breast cancer cell line JIMT-1 resistant to Trastuzumab were treated with the thiobenzimidazole derivative of Chemical Formula 1-3 prepared above and its hydrochloride (Compound 1-23) at the same concentrations of […], 0.1, 0.5, 1, 5, and 10 μM for 72 hours, and then cell viability and IC50 were measured by an MTS assay.

[3] = tested on: HER2-positive breast cancer cell line SKBR3; assay: Cell viability assay, SKBR3; format: cell-based; conditions: SKBR3 (sensitive to Trastuzumab); 72 hours
[4] = tested on: SKBR3 cell line; assay: DNA content analysis by flow cytometry (PI), SKBR3; format: cell-based; conditions: 0.1, 0.25 and 0.5 μM for 72 hours
Experimental: (§1) The degree of apoptosis of cancer cells induced by the thiobenzimidazole derivative of Chemical Formula 1-3 was measured through DNA content analysis using a flow cytometry. The SKBR3, BT474 and JIMT-1 cell lines were treated with a control (DMSO) and the derivative of Chemical Formula 1-3 at concentrations of 0.1, 0.25 and 0.5 μM for 72 hours, and then the cells were harvested, immobilized with 95% ethanol containing 0.5% Tween-20 for 24 hours, and then stained with propidium iodide (PI, 50 μg/mL) and RNase (50 μg/mL) for 30 minutes. Thereafter, the degree of apoptosis of cancer cells was analyzed using a flow cytometer.
(§2) The result of such apoptosis was shown on the cell cycle as a Sub G1 site, and the ratio of Sub G1 was expressed numerically and shown in FIG. 8.

[5] = tested on: BT474 cell line; assay: DNA content analysis by flow cytometry (PI), BT474; format: cell-based; conditions: 0.1, 0.25 and 0.5 μM for 72 hours
Experimental: as §1, §2

[6] = tested on: JIMT-1 cell line; assay: DNA content analysis by flow cytometry (PI), JIMT-1; format: cell-based, human; conditions: 0.1, 0.25 and 0.5 μM for 72 hours
Experimental: as §1, §2

[7] = tested on: cancer cells; assay: Annexin V/PI staining; format: cell-based; conditions: 0.1, 0.25, and 0.5 μM for 72 hours
Experimental: In addition, in order to confirm the apoptosis-inducing effect of the derivative of Chemical Formula 1-3, the control (DMSO) and the derivative of Chemical Formula 1-3 were treated at concentrations of 0.1, 0.25, and 0.5 μM for 72 hours, and then the degree of apoptosis was confirmed by Annexin V/PI staining.

Structure (SMILES)	melting point	IC50 ([1]; Homo sapiens, JIMT-1, MTS)	inhibitory effect on cell proliferation ([1]; JIMT-1 (resistant to Trastuzumab))	inhibitory effect on cell proliferation ([2]; BT474 (sensitive to Trastuzumab))	IC50 ([2]; Homo sapiens, BT-474, BT474, MTS)	inhibitory effect on cell proliferation [3]	G2/M phase cell cycle arrest [4]	apoptosis (Sub-G1 population) [4]	G2/M phase cell cycle arrest [5]	apoptosis (Sub-G1 population) [5]	G2/M phase cell cycle arrest [6]	apoptosis (Sub-G1 population) [6]	early and late apoptosis (Annexin V/PI) [7]
COC(=O)Nc1nc2cc(Sc3ccc(F)cc3)ccc2[nH]1 [Chemical Formula 1-1, methyl 5-(4-fluorophenyl-thio)-1H-benzo[d]imidazol-2-ylcarbamate]	232 to 233 °C	–	–	–	–	–	–	–	–	–	–	–	–
COC(=O)Nc1nc2cc(Sc3ccc(N4CCN(C)CC4)cc3)ccc2[nH]1 [Chemical Formula 1-3, methyl (5-((4-(4-methylpiperazin-1-yl)phenyl)thio)-1H-benzo[d]imidazol-2-yl) carbamate]	–	0.448 µM	inhibitory effect on cell proliferation was exhibited	inhibitory effect on cell proliferation was exhibited	2.18 µM	inhibitory effect on cell proliferation was exhibited	arrested the G2/M phase cell cycle	significantly induced apoptosis (Sub-G1 population)	arrested the G2/M phase cell cycle	significantly induced apoptosis (Sub-G1 population)	arrested the G2/M phase cell cycle	significantly induced apoptosis (Sub-G1 population)	early and late apoptosis were effectively induced in a concentration-dependent manner
